In brackets after ≈: the same amount, converted by molar mass. Activity calls are given as the source filed them. The rule behind the calls is not given here. Peptide text beside a SMILES is read from it.
What was measured:
Rattus norvegicus [1] = test: Toxicity in Wistar rat infected with methicillin-susceptible Staphylococcus aureus Smith diffuse assessed as behavioral alterations administered as solution by soaking of graft after 7 days; assay type: organism-based; details: in vivo, other, 168 h
Rattus norvegicus [2] = test: Toxicity in Wistar rat infected with methicillin-susceptible Staphylococcus aureus Smith diffuse assessed as diarrhea administered as solution by soaking of graft after 7 days; assay type: organism-based; details: in vivo, other, 168 h
Rattus norvegicus [3] = test: Toxicity in Wistar rat infected with methicillin-susceptible Staphylococcus aureus Smith diffuse assessed as vomiting administered as solution by soaking of graft after 7 days; assay type: organism-based; details: in vivo, other, 168 h
Rattus norvegicus [4] = test: Toxicity in Wistar rat infected with methicillin-susceptible Staphylococcus aureus Smith diffuse assessed as anorexia administered as solution by soaking of graft after 7 days; assay type: organism-based; details: in vivo, other, 168 h
Rattus norvegicus [5] = test: Toxicity in Wistar rat infected with methicillin-susceptible Staphylococcus aureus Smith diffuse assessed as perigraft inflammation administered as solution by soaking of graft after 7 days; assay type: organism-based; details: in vivo, other, 168 h
Rattus norvegicus [6] = test: Toxicity in Wistar rat infected with methicillin-susceptible Staphylococcus aureus Smith diffuse assessed as mortality administered as solution by soaking of graft after 7 days; assay type: organism-based; details: in vivo, other, 168 h
Staphylococcus aureus [7] = test: Antimicrobial activity against methicillin-susceptible Staphylococcus aureus Smith diffuse infected in Wistar rat assessed as reduction in infection administered as solution by soaking of graft after 7 days relative to control; assay type: functional, organism-based
Staphylococcus aureus [8] = test: Antimicrobial activity against methicillin-susceptible Staphylococcus aureus Smith diffuse assessed as inhibition of biofilm formation by cell-based microbroth dilution method; assay type: functional
Rattus norvegicus [9] = test: Toxicity in Wistar rat infected with methicillin-susceptible Staphylococcus aureus Smith diffuse assessed as behavioral alterations at 7 mg/kg administered as solution by soaking of graft after 7 days; assay type: organism-based; parameters: dose 7 mg/kg; details: in vivo, other, 168 h
Rattus norvegicus [10] = test: Toxicity in Wistar rat infected with methicillin-susceptible Staphylococcus aureus Smith diffuse assessed as diarrhea at 7 mg/kg administered as solution by soaking of graft after 7 days; assay type: organism-based; parameters: dose 7 mg/kg; details: in vivo, other, 168 h
Rattus norvegicus [11] = test: Toxicity in Wistar rat infected with methicillin-susceptible Staphylococcus aureus Smith diffuse assessed as vomiting at 7 mg/kg administered as solution by soaking of graft after 7 days; assay type: organism-based; parameters: dose 7 mg/kg; details: in vivo, other, 168 h
Rattus norvegicus [12] = test: Toxicity in Wistar rat infected with methicillin-susceptible Staphylococcus aureus Smith diffuse assessed as anorexia at 7 mg/kg administered as solution by soaking of graft after 7 days; assay type: organism-based; parameters: dose 7 mg/kg; details: in vivo, other, 168 h
Rattus norvegicus [13] = test: Toxicity in Wistar rat infected with methicillin-susceptible Staphylococcus aureus Smith diffuse assessed as perigraft inflammation at 7 mg/kg administered as solution by soaking of graft after 7 days; assay type: organism-based; parameters: dose 7 mg/kg; details: in vivo, other, 168 h
Rattus norvegicus [14] = test: Toxicity in Wistar rat infected with methicillin-susceptible Staphylococcus aureus Smith diffuse assessed as mortality at 7 mg/kg administered as solution by soaking of graft after 7 days; assay type: organism-based; parameters: dose 7 mg/kg; details: in vivo, other, 168 h

| Compound | Activity (Rattus norvegicus [1]) | Activity (Rattus norvegicus [2]) | Activity (Rattus norvegicus [3]) | Activity (Rattus norvegicus [4]) | Activity (Rattus norvegicus [5]) | Activity (Rattus norvegicus [6]) | Activity (Staphylococcus aureus [7]) | MIC (Staphylococcus aureus [8]) | Activity (Rattus norvegicus [9]) | Activity (Rattus norvegicus [10]) | Activity (Rattus norvegicus [11]) | Activity (Rattus norvegicus [12]) | Activity (Rattus norvegicus [13]) | Activity (Rattus norvegicus [14]) |
| --- | --- | --- | --- | --- | --- | --- | --- | --- | --- | --- | --- | --- | --- | --- |
| C[C@@H](O)[C@H](NC(=O)[C@@H](N)Cc1c[nH]c2ccccc12)C(=O)N[C@@H](CC(N)=O)C(=O)N[C@@H](Cc1ccccc1)C(N)=O (H-WTNF-NH2) | Non-toxic | Non-toxic | Non-toxic | Non-toxic | Non-toxic | Non-toxic | Active | > 128 µg/mL | – | – | – | – | – | – |
| C[C@@H](O)[C@H](NC(=O)[C@H](Cc1c[nH]c2ccccc12)NC(=O)[C@@H]1CCCN1)C(=O)N[C@@H](CC(N)=O)C(N)=O (H-PWTN-NH2) | Non-toxic | Non-toxic | Non-toxic | Non-toxic | Non-toxic | Non-toxic | Active | > 128 µg/mL | – | – | – | – | – | – |
| NC(=O)[C@H](Cc1c[nH]c2ccccc12)NC(=O)[C@@H]1CCCN1C(=O)[C@H](CO)NC(=O)[C@@H](N)Cc1ccc(O)cc1 (H-YSPW-NH2) | Non-toxic | Non-toxic | Non-toxic | Non-toxic | Non-toxic | Non-toxic | Active | > 128 µg/mL | – | – | – | – | – | – |
| H-ASPWTNF-NH2 | Non-toxic | Non-toxic | Non-toxic | Non-toxic | Non-toxic | Non-toxic | Active | > 128 µg/mL | – | – | – | – | – | – |
| C[C@@H](O)[C@H](NC(=O)[C@H](Cc1c[nH]c2ccccc12)NC(=O)[C@@H]1CCCN1C(=O)[C@@H](N)CO)C(N)=O (H-SPWT-NH2) | Non-toxic | Non-toxic | Non-toxic | Non-toxic | Non-toxic | Non-toxic | Active | > 128 µg/mL | – | – | – | – | – | – |
| CCCCCCCCCC(=O)N[C@@H](Cc1c[nH]c2ccccc12)C(=O)N[C@H](CC(N)=O)C(=O)N[C@@H](CC(=O)O)C(=O)N[C@@H]1C(=O)NCC(=O)N[C@@H](CCCN)C(=O)N[C@@H](CC(=O)O)C(=O)N[C@H](C)C(=O)N[C@@H](CC(=O)O)C(=O)NCC(=O)N[C@H](CO)C(=O)N[C@@H]([C@H](C)CC(=O)O)C(=O)N[C@@H](CC(=O)c2ccccc2N)C(=O)O[C@@H]1C | – | – | – | – | – | – | – | 4 µg/mL (≈ 2.47 µM) | Non-toxic | Non-toxic | Non-toxic | Non-toxic | Non-toxic | Non-toxic |
| H-YAPWTNF-NH2 | Non-toxic | Non-toxic | Non-toxic | Non-toxic | Non-toxic | Non-toxic | Active | > 128 µg/mL | – | – | – | – | – | – |
| H-YSPWANF-NH2 | Non-toxic | Non-toxic | Non-toxic | Non-toxic | Non-toxic | Non-toxic | Active | > 128 µg/mL | – | – | – | – | – | – |
| H-YSAWTNF-NH2 | Non-toxic | Non-toxic | Non-toxic | Non-toxic | Non-toxic | Non-toxic | Active | > 128 µg/mL | – | – | – | – | – | – |
| H-YSPWTNA-NH2 | Non-toxic | Non-toxic | Non-toxic | Non-toxic | Non-toxic | Non-toxic | Active | > 128 µg/mL | – | – | – | – | – | – |
| H-YSPWTNF-NH2 | – | – | – | – | – | – | Active | – | – | – | – | – | – | – |
| H-YSPWTAF-NH2 | Non-toxic | Non-toxic | Non-toxic | Non-toxic | Non-toxic | Non-toxic | Active | > 128 µg/mL | – | – | – | – | – | – |
| H-YSPATNF-NH2 | Non-toxic | Non-toxic | Non-toxic | Non-toxic | Non-toxic | Non-toxic | Active | > 128 µg/mL | – | – | – | – | – | – |

Reference: ChEMBL document CHEMBL3132765, “Discovery of novel RIP derivatives by alanine scanning for the treatment of S. aureus infections” (Medchemcomm, 2013)
